# Test results: PubChem BioAssay AID330 (DTP/NCI, 2004)
# Values joined by “and” are separate entries in the source; they are usually repeats but may differ in a detail not shown here. Identical values can stand only once. Toxic doses and inconclusive results are not listed.
# Tested on: P388 leukemia ip, CD2F1 mice, survival T/C
# Experiment: NCI In Vivo Anticancer Drug Screen. Data for tumor model P388 Leukemia (intraperitoneal) in CD2F1 (CDF1) mice
# Settings: endpoint: median survival time, higher = longer survival
# How it was run: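 Mice carrying the transplanted tumor received test compound or vehicle. Survival was recorded in each group, and the value is the treated-group measurement divided by that of the vehicle-treated control group.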
# [1] = dose: 50.0 mg/kg/injection, schedule: Q01DX009 (ip), vehicle: saline with Tween-80
# [2] = dose: 100.0 mg/kg/injection, schedule: Q04DX003 (ip), vehicle: saline
# [3] = dose: 200.0 mg/kg/injection, schedule: Q04DX003 (ip), vehicle: saline
# [4] = dose: 400.0 mg/kg/injection, schedule: Q04DX003 (ip), vehicle: saline
# [5] = dose: 50.0 mg/kg/injection, schedule: Q01DX005 (ip), vehicle: Klucel (hydroxypropylcellulose) (HPC)
# [6] = dose: 100.0 mg/kg/injection, schedule: Q01DX005 (ip), vehicle: Klucel (hydroxypropylcellulose) (HPC)
# [7] = dose: 50.0 mg/kg/injection, schedule: Q01DX005 (ip), vehicle: saline with Tween-80
# [8] = dose: 100.0 mg/kg/injection, schedule: Q01DX005 (ip), vehicle: saline with Tween-80
# [9] = dose: 200.0 mg/kg/injection, schedule: Q01DX005 (ip), vehicle: saline with Tween-80
# [10] = dose: 120.0 mg/kg/injection, schedule: Q01DX005 (ip), vehicle: saline with Tween-80
# [11] = dose: 240.0 mg/kg/injection, schedule: Q01DX005 (ip), vehicle: saline with Tween-80
# [12] = dose: 200.0 mg/kg/injection, schedule: Q01DX005 (ip), vehicle: Klucel (hydroxypropylcellulose) (HPC)
# [13] = dose: 25.0 mg/kg/injection, schedule: Q04DX002 (ip), vehicle: saline with Tween-80
# [14] = dose: 50.0 mg/kg/injection, schedule: Q04DX002 (ip), vehicle: saline with Tween-80
compound,measurement,setting,value
Cn1cnc2cc(NCc3ccccc3)c([N+](=O)[O-])cc2c1=O,T/C,"dose: 100.0 mg/kg/injection, schedule: Q04DX003 (ip), vehicle: Klucel (hydroxypropylcellulose) (HPC)",100 % of control
same,T/C,"dose: 200.0 mg/kg/injection, schedule: Q04DX003 (ip), vehicle: Klucel (hydroxypropylcellulose) (HPC)",106 % of control
same,T/C,"dose: 400.0 mg/kg/injection, schedule: Q04DX003 (ip), vehicle: Klucel (hydroxypropylcellulose) (HPC)",101 % of control
CCOC(=O)/C=C(\C)SC1=CC(=O)c2ccccc2C1=O,T/C,"dose: 3.13 mg/kg/injection, schedule: Q01DX009 (ip), vehicle: saline with Tween-80",86 % of control
same,T/C,"dose: 6.25 mg/kg/injection, schedule: Q01DX009 (ip), vehicle: saline with Tween-80",94 % of control
same,T/C,"dose: 12.5 mg/kg/injection, schedule: Q01DX009 (ip), vehicle: saline with Tween-80",99 % of control and 122 % of control
same,T/C,"dose: 25.0 mg/kg/injection, schedule: Q01DX009 (ip), vehicle: saline with Tween-80",100 % of control and 111 % of control
same,T/C,[1],100 % of control and 107 % of control
O=S(=O)(O)CNc1ccc(Br)cc1,T/C,[2],99 % of control
same,T/C,[3],99 % of control
same,T/C,[4],89 % of control
CCCCCSc1nc2ccc(NCN3C(=O)C4C5C=CC(C5)C4C3=O)cc2s1 (stereo not drawn),T/C,"dose: 50.0 mg/kg/injection, schedule: Q01DX009 (ip), vehicle: Klucel (hydroxypropylcellulose) (HPC)",98 % of control
same,T/C,"dose: 100.0 mg/kg/injection, schedule: Q01DX009 (ip), vehicle: Klucel (hydroxypropylcellulose) (HPC)",86 % of control
same,T/C,"dose: 200.0 mg/kg/injection, schedule: Q01DX009 (ip), vehicle: Klucel (hydroxypropylcellulose) (HPC)",92 % of control
CN(CCC(C#N)c1ccccc1)Cc1ccccc1 (stereo not drawn),T/C,[5],92 % of control
same,T/C,[6],101 % of control
O=C1c2ccccc2C(=O)N1N1C(=O)c2ccccc2C1=O,T/C,"dose: 100.0 mg/kg/injection, schedule: Q04DX003 (ip), vehicle: saline with Tween-80",100 % of control
same,T/C,"dose: 200.0 mg/kg/injection, schedule: Q04DX003 (ip), vehicle: saline with Tween-80",100 % of control
same,T/C,"dose: 400.0 mg/kg/injection, schedule: Q04DX003 (ip), vehicle: saline with Tween-80",100 % of control
CNC(=O)C(O)c1c(-c2ccccc2)c(-c2ccccc2)c2n1CCC2 (stereo not drawn),T/C,"dose: 60.0 mg/kg/injection, schedule: Q01DX005 (ip), vehicle: Klucel (hydroxypropylcellulose) (HPC)",96 % of control
same,T/C,"dose: 120.0 mg/kg/injection, schedule: Q01DX005 (ip), vehicle: Klucel (hydroxypropylcellulose) (HPC)",89 % of control
same,T/C,"dose: 240.0 mg/kg/injection, schedule: Q01DX005 (ip), vehicle: Klucel (hydroxypropylcellulose) (HPC)",86 % of control
OC(c1ccncc1)c1cc(Cl)ccc1Cl (stereo not drawn),T/C,[1],94 % of control
same,T/C,"dose: 100.0 mg/kg/injection, schedule: Q01DX009 (ip), vehicle: saline with Tween-80",100 % of control
same,T/C,"dose: 200.0 mg/kg/injection, schedule: Q01DX009 (ip), vehicle: saline with Tween-80",108 % of control
COC(=O)/C=C(/Nc1c(Cl)sc2ccccc2c1=O)C(=O)OC,T/C,[7],97 % of control
same,T/C,[8],97 % of control
same,T/C,[9],95 % of control
CC(=O)Nc1ccc2c(Nc3ccc(NS(C)(=O)=O)cc3)c3ccccc3nc2c1,T/C,"dose: 0.09 mg/kg/injection, schedule: Q01DX009 (ip), vehicle: saline",151 % of control
same,T/C,"dose: 0.09 mg/kg/injection, schedule: Q04DX003 (ip), vehicle: saline",156 % of control
same,T/C,"dose: 0.13 mg/kg/injection, schedule: Q01DX009 (ip), vehicle: saline",151 % of control
same,T/C,"dose: 0.13 mg/kg/injection, schedule: Q04DX003 (ip), vehicle: saline",175 % of control
same,T/C,"dose: 0.2 mg/kg/injection, schedule: Q01DX009 (ip), vehicle: saline",164 % of control
same,T/C,"dose: 0.2 mg/kg/injection, schedule: Q04DX003 (ip), vehicle: saline",166 % of control
same,T/C,"dose: 0.29 mg/kg/injection, schedule: Q01DX009 (ip), vehicle: saline",190 % of control
same,T/C,"dose: 0.3 mg/kg/injection, schedule: Q01DX009 (ip), vehicle: saline",169 % of control
same,T/C,"dose: 0.3 mg/kg/injection, schedule: Q04DX003 (ip), vehicle: saline",175 % of control
same,T/C,"dose: 0.44 mg/kg/injection, schedule: Q01DX009 (ip), vehicle: saline",193 % of control
same,T/C,"dose: 0.66 mg/kg/injection, schedule: Q01DX009 (ip), vehicle: saline",193 % of control
same,T/C,"dose: 1.0 mg/kg/injection, schedule: Q01DX009 (ip), vehicle: saline",200 % of control
same,T/C,"dose: 1.0 mg/kg/injection, schedule: Q04DX003 (ip), vehicle: saline",155 % of control
same,T/C,"dose: 2.2 mg/kg/injection, schedule: Q04DX003 (ip), vehicle: saline",177 % of control
same,T/C,"dose: 3.3 mg/kg/injection, schedule: Q04DX003 (ip), vehicle: saline",186 % of control
same,T/C,"dose: 5.0 mg/kg/injection, schedule: Q04DX003 (ip), vehicle: saline",227 % of control
same,T/C,"dose: 7.5 mg/kg/injection, schedule: Q04DX003 (ip), vehicle: saline",245 % of control
O=C1/C(=C/c2ccccc2)CSC/C1=C\c1ccccc1,T/C,[5],91 % of control
same,T/C,[6],86 % of control
O=C(/C=C/c1c(-c2ccccc2)[nH]c2ccccc12)c1ccccc1[N+](=O)[O-],T/C,"dose: 60.0 mg/kg/injection, schedule: Q01DX005 (ip), vehicle: saline with Tween-80",95 % of control
same,T/C,[10],96 % of control
same,T/C,[11],92 % of control
Nc1ncnc2c1ncn2CC(O)CCl (stereo not drawn),T/C,[5],100 % of control
same,T/C,[6],99 % of control
same,T/C,[12],100 % of control
CCCCN(CCCC)C(=N)c1cc(OC)ccc1OC,T/C,"dose: 3.12 mg/kg/injection, schedule: Q01DX005 (ip), vehicle: saline",101 % of control
same,T/C,"dose: 6.25 mg/kg/injection, schedule: Q01DX005 (ip), vehicle: saline",100 % of control
COc1cc2cc3cc(-c4ccc(Cl)cc4)c(N4CCOCC4)nc3nc2cc1OC,T/C,"dose: 15.0 mg/kg/injection, schedule: Q01DX005 (ip), vehicle: saline with Tween-80",92 % of control
same,T/C,"dose: 30.0 mg/kg/injection, schedule: Q01DX005 (ip), vehicle: saline with Tween-80",93 % of control
same,T/C,[10],91 % of control
same,T/C,[11],93 % of control
Nc1nc[nH]c(=O)c1NC=O,T/C,[2],120 % of control
same,T/C,[3],100 % of control
same,T/C,[4],110 % of control
Cc1ccc(N=C(CC(C)C)C2C(=O)c3ccccc3C2=O)cc1,T/C,[5],100 % of control
same,T/C,[6],94 % of control
same,T/C,[12],99 % of control
[Cl][Pt+2][Cl].[NH-]c1ccc([N+](=O)[O-])cc1[NH-],T/C,"dose: 3.12 mg/kg/injection, schedule: Q04DX002 (ip), vehicle: saline with Tween-80",100 % of control
same,T/C,"dose: 6.25 mg/kg/injection, schedule: Q04DX002 (ip), vehicle: saline with Tween-80",110 % of control and 113 % of control
same,T/C,"dose: 12.5 mg/kg/injection, schedule: Q04DX002 (ip), vehicle: saline with Tween-80",115 % of control and 118 % of control
same,T/C,[13],123 % of control
same,T/C,[14],117 % of control
CCn1c2nc(=O)n(C)c(=O)c-2[n+]([O-])c2cc(C)ccc21,T/C,"dose: 6.25 mg/kg/injection, schedule: Q04DX003 (ip), vehicle: saline with Tween-80",88 % of control
same,T/C,"dose: 12.5 mg/kg/injection, schedule: Q04DX003 (ip), vehicle: saline with Tween-80",86 % of control
same,T/C,"dose: 25.0 mg/kg/injection, schedule: Q04DX003 (ip), vehicle: saline with Tween-80",88 % of control
same,T/C,"dose: 50.0 mg/kg/injection, schedule: Q04DX003 (ip), vehicle: saline with Tween-80",86 % of control
CC1(C)C=Cc2c(ccc(C(=O)Cc3ccccc3)c2O)O1,T/C,[7],99 % of control
same,T/C,[8],96 % of control
same,T/C,[9],93 % of control
Cc1nnc2c(N)nccn12,T/C,"dose: 100.0 mg/kg/injection, schedule: Q01DX001 (ip), vehicle: Klucel (hydroxypropylcellulose) (HPC)",94 % of control
same,T/C,"dose: 200.0 mg/kg/injection, schedule: Q01DX001 (ip), vehicle: Klucel (hydroxypropylcellulose) (HPC)",96 % of control
O=S(=O)(c1ccccc1)N1CCN(S(=O)(=O)c2ccccc2)COC1,T/C,[7],103 % of control
same,T/C,[8],101 % of control
same,T/C,[9],102 % of control
CSC(=S)/N=c1\c(C)cccn1C,T/C,[13],98 % of control
same,T/C,[14],100 % of control
same,T/C,"dose: 100.0 mg/kg/injection, schedule: Q04DX002 (ip), vehicle: saline with Tween-80",102 % of control
Cc1cc(C)n(-c2ccc([N+](=O)[O-])cn2)n1,T/C,[2],99 % of control
same,T/C,[3],96 % of control
same,T/C,[4],99 % of control
